Data published in a compilation of properties of binary mixtures (doi:10.1016/j.jct.2015.07.015).

Test: xn = mol fraction of the nth substance listed
Conditions: 101 kPa

C=CC[n+]1ccn(C)c1.[Cl-] + O
viscosity [mPa·s]
Conditions	298.15 K	303.15 K	313.15 K	323.15 K	328.15 K	333.15 K	343.15 K	353.15 K	363.15 K	373.15 K
x2 = 0.045	1884	1137	–	232	167	124	73	46.2	31.2	22.21
x2 = 0.091	1416	891	392	196	144	–	64.9	41.8	–	20.53
x2 = 0.126	1090	691	–	164	123	92	56.3	–	–	–
x2 = 0.152	887	580	270	147	108	84	51.7	34.3	24	17.6
x2 = 0.193	–	459	221	121	91	71	45	30.4	21.6	–
x2 = 0.267	–	293	151	86	67.1	53.1	35	–	17.7	–
x2 = 0.335	259	–	101	–	48.6	39.3	26.8	19.2	14.26	10.98

CC(=O)[O-].CC[n+]1ccn(C)c1 + O
viscosity [mPa·s]
Conditions	298.15 K	303.15 K	313.15 K	323.15 K	333.15 K	343.15 K	353.15 K	363.15 K	373.15 K
x2 = 0.072	124	92	55.4	35.4	24.3	17.63	13.21	–	8.19
x2 = 0.102	119	89	53.6	34.5	23.8	17.23	–	–	8.07
x2 = 0.132	112	–	51.1	–	22.9	16.73	–	–	7.86
x2 = 0.188	100	76	–	30.6	–	15.69	–	9.32	–
x2 = 0.266	–	66	41.8	27.7	–	14.44	11	8.67	6.98
x2 = 0.355	75	58	36.9	24.8	17.7	–	–	8	6.47
